Experimental data published in publication PMC3532596, “Cell-based optimization of novel benzamides as potential antimalarial leads” (Bioorganic & Medicinal Chemistry Letters, 2009).
Converted amounts (≈) assume the structure as drawn. Each block holds one compound with its values, some of them ahead of it.

Columns and labels:
P. falciparum 3D7 strain = assay: cell-based P. falciparum proliferation assay, 3D7 strain; conditions: Plasmodium falciparum; chloroquine sensitive 3D7 strain; means of two experiments
Text: (§1) Currently there is a need for novel chemical scaffolds with different mechanisms of action, since most of the current approved antimalarial drugs belong to the aminoquinoline family. In order to find new chemical scaffolds, we initiated a compound screen using our in-house kinase inhibitor collection and subjected them to a cell-based of Plasmodium falciparum proliferation assay[5,6] We envisioned that the hits arising from this screen can be rapidly optimized by leveraging our past experiences with these compounds series in alternative target-classes/indications. Furthermore, we thought that it would be prudent to remove the human kinase activity early on during the compound optimization phase to negate the possibility of toxicity arising from host-related off-target activities (Scheme 1).

P. falciparum W2 strain = assay: cell-based P. falciparum proliferation assay, W2 strain; set-up: species or system Plasmodium falciparum; conditions: for EC50: Plasmodium falciparum, W2, read-out: P. falciparum W2 strain EC50
Text: as §1
One important aspect of antimalarial drug discovery is to identify agents that are active against the drug-resistant parasites. […] While most of these resistance phenotypes are due to point mutations in the drug target, the W2 strain also contains an amplification of the P. falciparum multidrug resistance transporter.[10]

[1] = snapshot PK in mice, single oral dose; assay type: in vivo; conditions: mice balb/c, 20 mg/kg orally, PEG300/D5W 3:1 solution, free base; for AUC(0-t) / Cmax at 5 h / Tmax at 5 h: mouse, in vivo, po
Protocol: Mice were dosed a single dose of 20 mg/kg orally and their exposure levels were monitored over a period of 5 h and results are summarized in Table 6.[11]
[11] Snapshot PK is developed and used by GNF pharmacology group as a rapid pharmacokinetic screening approach. The pharmacokinetic parameters of the compounds are studied in a single mode of administration (generally PO arm) over a period of 5 h. The study is carried out on two animals and the samples are pooled together at each time point. This high throughput approach offers exposure levels with reasonable confidence without committing to extensive resources. For details, see: Liu, B.; Chang, J.; Gordon, W. P.; Isbell, J.; Zhou, Yi.; Tuntland, T. Drug Discovery Today2008, 13, 360–367.

[2] = system: P. falciparum strain Camp R; assay: P. falciparum proliferation assay, Camp R strain; assay type: cell-based; conditions: Plasmodium falciparum
Text: as §1
(§2) Compound 32 was profiled in an extended panel of 15 drug resistant strains (Table 5) and against a 6-cell line toxicity panel.

P. falciparum strain HB3 = assay: P. falciparum proliferation assay, HB3 strain; assay type: cell-based; conditions: Plasmodium falciparum
Text: as §1, §2

[3] = system: P. falciparum strain C188; assay: P. falciparum proliferation assay, C188 strain; assay type: cell-based; conditions: Plasmodium falciparum
Text: as §1, §2

[4] = system: P. falciparum strain TM91C235; assay: P. falciparum proliferation assay, TM91C235 strain; assay type: cell-based; conditions: Plasmodium falciparum
Text: as §1, §2

[5] = system: P. falciparum strain FCR3; assay: P. falciparum proliferation assay, FCR3 strain; assay type: cell-based; conditions: Plasmodium falciparum
Text: as §1, §2

[6] = system: P. falciparum strain 3BAG; assay: P. falciparum proliferation assay, 3BAG strain; assay type: cell-based; conditions: Plasmodium falciparum
Text: as §1, §2

P. falciparum strain 7G8 = assay: P. falciparum proliferation assay, 7G8 strain; assay type: cell-based; conditions: Plasmodium falciparum
Text: as §1, §2

[7] = 6-cell line toxicity panel, selectivity index; assay type: cell-based; conditions: cytotoxicity TC50 vs antiplasmodial potency; read-out: selectivity index (SI)
Text: as §2

P. falciparum strain K1 = assay: P. falciparum proliferation assay, K1 strain; assay type: cell-based; conditions: Plasmodium falciparum
Text: as §1, §2

[8] = metabolic stability in mouse microsomes; assay type: in vitro ADME; conditions: preliminary
Text: (§3) We also performed preliminary solubility and metabolic stability measurements on compound 32.

P. falciparum strain Dd2 = assay: P. falciparum proliferation assay, Dd2 strain; assay type: cell-based; conditions: Plasmodium falciparum
Text: as §1, §2

P. falciparum strain FCB = assay: P. falciparum proliferation assay, FCB strain; assay type: cell-based; conditions: Plasmodium falciparum
Text: as §1, §2

15 P. falciparum strains = assay: extended panel of 15 drug resistant strains; assay type: cell-based, Plasmodium falciparum; conditions: 15 strains, potencies relative to each other
Text: as §2

P. falciparum strain D10 = assay: P. falciparum proliferation assay, D10 strain; assay type: cell-based; conditions: Plasmodium falciparum
Text: as §1, §2

P. falciparum strain D6 = assay: P. falciparum proliferation assay, D6 strain; assay type: cell-based; conditions: Plasmodium falciparum
Text: as §1, §2

HeLa = assay type: cell-based; conditions: human
Text: as §2

293T = assay type: cell-based; conditions: human
Text: as §2

Huh7 = assay type: cell-based; conditions: human
Text: as §2

HEp2 = assay type: cell-based; conditions: human
Text: as §2

CHO = assay type: cell-based; conditions: Chinese hamster
Text: as §2

Ba/F3 = assay type: cell-based; conditions: mouse
Text: as §2

[9] = system: P. falciparum strain NF54; assay: P. falciparum proliferation assay, NF54 strain; assay type: cell-based; conditions: Plasmodium falciparum
Text: as §1, §2

[10] = HT-thermodynamic solubility; assay type: physicochemical; conditions: pH 6.8; pH6.8, free base; preliminary
Text: as §3

SMILES: CCCNC(=O)c1cc(N2CCC(N3CCCC3)CC2)cc(C(F)(F)F)c1 [Compound 4]
EC50 (P. falciparum 3D7 strain): 6480 nM

SMILES: O=C(Nc1ccncn1)c1cc(N2CCC(N3CCCC3)CC2)cc(C(F)(F)F)c1 [Compound 5]
EC50 (P. falciparum 3D7 strain): 2160 nM

SMILES: O=C(Nc1ccccc1Cl)c1cc(N2CCC(N3CCCC3)CC2)cc(C(F)(F)F)c1 [Compound 6]
EC50 (P. falciparum 3D7 strain): 1720 nM

SMILES: O=C(Nc1cccc(Cl)c1)c1cc(N2CCC(N3CCCC3)CC2)cc(C(F)(F)F)c1 [Compound 8]
EC50 (P. falciparum W2 strain): 888 nM | shift in potency between 3D7 and W2 (P. falciparum W2 strain; W2 vs 3D7): ~6 fold | AUC(0–5h)/dose [1]: 5.31 (min ug/mL)/(mg/kg) | AUC(0-t) [1]: 3.92 µM·h | Cmax at 5 h [1]: 1360 nM | Tmax at 5 h [1]: 1 h | EC50 (P. falciparum 3D7 strain): 134 nM

SMILES: O=S(=O)(Nc1cc(N2CCC(N3CCCC3)CC2)cc(C(F)(F)F)c1)c1cccc(C(F)(F)F)c1 [Compound 16]
EC50 (P. falciparum 3D7 strain): 8250 nM

SMILES: CN(C(=O)c1cc(N2CCC(N3CCCC3)CC2)cc(C(F)(F)F)c1)c1cccc(Cl)c1 [Compound 17]
EC50 (P. falciparum 3D7 strain): 4680 nM

SMILES: FC(F)(F)c1cccc(CNc2cc(N3CCC(N4CCCC4)CC3)cc(C(F)(F)F)c2)c1 [Compound 20]
EC50 (P. falciparum 3D7 strain): 1980 nM

SMILES: O=C(Nc1cccc(Cl)c1)c1cccc(N2CCC(N3CCCC3)CC2)c1 [Compound 25]
EC50 (P. falciparum 3D7 strain): 5880 nM

SMILES: O=C(Nc1cccc(Cl)c1)c1cc(C(F)(F)F)nc(N2CCC(N3CCCC3)CC2)n1 [Compound 27]
EC50 (P. falciparum 3D7 strain): 1670 nM

SMILES: Cc1cc(C(=O)Nc2cccc(Cl)c2)nc(N2CCC(N3CCCC3)CC2)n1 [Compound 28]
EC50 (P. falciparum 3D7 strain): 2980 nM

SMILES: CC(C)(C)c1cc(C(=O)Nc2cccc(Cl)c2)nc(N2CCC(N3CCCC3)CC2)n1 [Compound 29]
EC50 (P. falciparum 3D7 strain): 2080 nM

SMILES: O=C(Nc1cccc(Cl)c1)c1cc(N2CCC(N3CCCCC3)CC2)cc(C(F)(F)F)c1 [Compound 30]
EC50 (P. falciparum W2 strain): 296 nM | AUC(0–5h)/dose [1]: 6.10 (min ug/mL)/(mg/kg) | AUC(0-t) [1]: 4.37 µM·h | Cmax at 5 h [1]: 1370 nM | Tmax at 5 h [1]: 1 h | EC50 (P. falciparum 3D7 strain): 82 nM

SMILES: O=C(Nc1cccc(C(F)(F)F)c1)c1cc(N2CCC(N3CCCCC3)CC2)cc(C(F)(F)F)c1 [Compound 31]
EC50 (P. falciparum W2 strain): 299 nM | EC50 (P. falciparum 3D7 strain): 149 nM

SMILES: CC1CCN(C2CCN(c3cc(C(=O)Nc4cccc(Cl)c4)cc(C(F)(F)F)c3)CC2)CC1 [Compound 32]
EC50 [2]: 138 nM | EC50 (P. falciparum strain HB3): 146 nM | EC50 (P. falciparum W2 strain): 323 nM | EC50 [3]: 83 nM | EC50 [4]: 120 nM | EC50 [5]: 218 nM | EC50 [6]: 268 nM | EC50 (P. falciparum strain 7G8): 309 nM | selectivity ratio [7]: > 20 | EC50 (P. falciparum strain K1): 150 nM | extraction ratio [8]: 0.383 ± 0.04 | microsomal CLint [8]: 21.4 µL/min/mg | AUC(0–5h)/dose [1]: 11.42 (min ug/mL)/(mg/kg) | AUC(0-t) [1]: 7.93 µM·h | Cmax at 5 h [1]: 2280 nM | Tmax at 5 h [1]: 5 h | EC50 (P. falciparum strain Dd2): 141 nM | EC50 (P. falciparum strain FCB): 306 nM | spread of potencies across the strain panel (15 P. falciparum strains): ≤ 3 fold | EC50 (P. falciparum strain D10): 94 nM | EC50 (P. falciparum strain D6): 81 nM | cytotoxicity TC50 (HeLa): greater than 8 μM | cytotoxicity TC50 (293T): greater than 8 μM | cytotoxicity TC50 (Huh7): greater than 8 μM | cytotoxicity TC50 (HEp2): greater than 8 μM | cytotoxicity TC50 (CHO): greater than 8 μM | cytotoxicity TC50 (Ba/F3): greater than 8 μM | EC50 (P. falciparum 3D7 strain): 140 nM | EC50 [9]: 104 nM | solubility thermodynamic [10]: 26 µg/mL (≈ 54.2 µM)

SMILES: O=C(Nc1cccc(C(F)(F)F)c1)c1cc(N2CCC(N3CCCCC3=O)CC2)cc(C(F)(F)F)c1 [Compound 33]
EC50 (P. falciparum W2 strain): 1410 nM | EC50 (P. falciparum 3D7 strain): 1490 nM

SMILES: CC1CCCN(C2CCN(c3cc(C(=O)Nc4cccc(C(F)(F)F)c4)cc(C(F)(F)F)c3)CC2)C1 (stereo not shown) [Compound 34]
EC50 (P. falciparum W2 strain): 211 nM | EC50 (P. falciparum 3D7 strain): 58 nM

SMILES: O=C(Nc1cccc(C(F)(F)F)c1)c1cc(N2CCc3ccccc3C2)cc(C(F)(F)F)c1 [Compound 35]
EC50 (P. falciparum W2 strain): 635 nM | AUC(0–5h)/dose [1]: 2.33 (min ug/mL)/(mg/kg) | AUC(0-t) [1]: 1.67 µM·h | Cmax at 5 h [1]: 672 nM | Tmax at 5 h [1]: 0.5 h | EC50 (P. falciparum 3D7 strain): 175 nM

Further compounds by falling EC50 (P. falciparum 3D7 strain), results first:

EC50 (P. falciparum 3D7 strain): 766 nM
SMILES: O=C(Nc1cccc(Cl)c1)c1cc(F)cc(N2CCC(N3CCCC3)CC2)c1 [Compound 24]

EC50 (P. falciparum 3D7 strain): 734 nM
SMILES: O=C(NCc1cccc(C(F)(F)F)c1)c1cc(N2CCC(N3CCCC3)CC2)cc(C(F)(F)F)c1 [Compound 22]

EC50 (P. falciparum 3D7 strain): 674 nM
SMILES: O=C(Nc1cccc(Cl)c1)c1ccnc(N2CCC(N3CCCC3)CC2)c1 [Compound 26]

EC50 (P. falciparum 3D7 strain): 638 nM
SMILES: FC(F)(F)c1cccc(Nc2cc(N3CCC(N4CCCC4)CC3)cc(C(F)(F)F)c2)c1 [Compound 21]

EC50 (P. falciparum 3D7 strain): 452 nM
SMILES: O=C(Nc1cccc(C(F)(F)F)c1)Nc1cc(N2CCC(N3CCCC3)CC2)cc(C(F)(F)F)c1 [Compound 18]

EC50 (P. falciparum 3D7 strain): 423 nM
SMILES: O=C(NC1(c2cccc(C(F)(F)F)c2)CC1)c1cc(N2CCC(N3CCCC3)CC2)cc(C(F)(F)F)c1 [Compound 23]

EC50 (P. falciparum 3D7 strain): 402 nM
SMILES: N#Cc1cccc(C(=O)Nc2cc(N3CCC(N4CCCC4)CC3)cc(C(F)(F)F)c2)c1 [Compound 15]

EC50 (P. falciparum 3D7 strain): 328 nM
SMILES: O=C(Nc1cccc(Cl)c1)Nc1cc(N2CCC(N3CCCC3)CC2)cc(C(F)(F)F)c1 [Compound 19]

AUC(0–5h)/dose [1]: 6.94 (min ug/mL)/(mg/kg) | AUC(0-t) [1]: 4.77 µM·h | Cmax at 5 h [1]: 1170 nM | Tmax at 5 h [1]: 3 h | EC50 (P. falciparum 3D7 strain): 201 nM
SMILES: O=C(Nc1cc(N2CCC(N3CCCC3)CC2)cc(C(F)(F)F)c1)c1cccc(C(F)(F)F)c1 [Compound 14]

EC50 (P. falciparum 3D7 strain): 174 nM
SMILES: O=C(Nc1cccc(C(F)(F)F)c1)c1cc(N2CCC(N3CCCC3)CC2)cc(C(F)(F)F)c1 [Compound 10]

EC50 (P. falciparum 3D7 strain): 146 nM
SMILES: N#Cc1cccc(NC(=O)c2cc(N3CCC(N4CCCC4)CC3)cc(C(F)(F)F)c2)c1 [Compound 9]

EC50 (P. falciparum 3D7 strain): 114 nM
SMILES: O=C(Nc1ccc(Cl)cc1)c1cc(N2CCC(N3CCCC3)CC2)cc(C(F)(F)F)c1 [Compound 7]

EC50 (P. falciparum 3D7 strain): 98 nM
SMILES: O=C(Nc1ccc(Br)c(Cl)c1)c1cc(N2CCC(N3CCCC3)CC2)cc(C(F)(F)F)c1 [Compound 12]

EC50 (P. falciparum 3D7 strain): 54 nM
SMILES: O=C(Nc1ccc(Cl)c(Cl)c1)c1cc(N2CCC(N3CCCC3)CC2)cc(C(F)(F)F)c1 [Compound 11]

AUC(0–5h)/dose [1]: 7.01 (min ug/mL)/(mg/kg) | AUC(0-t) [1]: 4.81 µM·h | Cmax at 5 h [1]: 1640 nM | Tmax at 5 h [1]: 5 h | EC50 (P. falciparum 3D7 strain): 48 nM
SMILES: O=C(Nc1cc(Cl)cc(Cl)c1)c1cc(N2CCC(N3CCCC3)CC2)cc(C(F)(F)F)c1 [Compound 13]
